In patent US4904764A, “4-diazo-3-methyl-2,5-cyclohexadine-1-one and pharmacetically acceptable salts thereof” (E. R. Squibb & Sons, Inc., priority 1985, dated 1990):
≈ marks a conversion by molar mass, not a printed value.

How the values were obtained:
Shigella sonnei SC8449 = assay: Agar dilution assay, aerobic test organisms (MIC); assay type: cell-based; conditions: S. sonnei SC8449, K-10 agar, 10^4 CFU, 37° C., 18 hours, protected from light
[1] = test system: Bacteroides thetaiotamicron SC9005; assay: Agar dilution assay, anaerobic bacteria (MIC); assay type: cell-based; conditions: B. thetaiotamicron SC9005, DST agar, 10^5 CFU, 37° C., 18 hours, anaerobic chamber
[2] = test system: Bacteroides thetaiotamicron SC10278; assay: Agar dilution assay, anaerobic bacteria (MIC); assay type: cell-based; conditions: B. thetaiotamicron SC10278, DST agar, 10^5 CFU, 37° C., 18 hours, anaerobic chamber
[3] = test system: Bacteroides fragilis SC9844; assay: Agar dilution assay, anaerobic bacteria (MIC); assay type: cell-based; conditions: B. fragilis SC9844, DST agar, 10^5 CFU, 37° C., 18 hours, anaerobic chamber
[4] = test system: Bacteroides fragilis SC10277; assay: Agar dilution assay, anaerobic bacteria (MIC); assay type: cell-based; conditions: B. fragilis SC10277, DST agar, 10^5 CFU, 37° C., 18 hours, anaerobic chamber
[5] = test system: Bacteroides fragilis SC11085; assay: Agar dilution assay, anaerobic bacteria (MIC); assay type: cell-based; conditions: B. fragilis SC11085, DST agar, 10^5 CFU, 37° C., 18 hours, anaerobic chamber
[6] = test system: Clostridium perfringens SC11256; assay: microbe, parasite or virus in culture; assay type: cell-based; conditions: SC11256, 18 h
[7] = test system: Clostridium septicum SC1780; assay: Agar dilution assay, anaerobic bacteria (MIC); assay type: cell-based; conditions: SC1780, 18 h
Protocol: The susceptibility of a number of anaerobic bacteria was also determined by an agar dilution technique. Test organisms were prepared from 24-48 hour cultures grown in Chopped Meat Broth (Scott Laboratories, Fiskeville, R.I.) or from washings from chocolate agar slants. These slants were prepared by adding hemoglobin to Proteose #3 Agar (Difco) to a concentration of one percent. The growth was washed off the slants with Brain Heart Infusion Broth (BBL Microbiology Systems) and diluted to a density of 10^8 CFU/ml. The subject compound was dissolved in the appropriate diluent at a concentration of 1000 μg/ml.
The agar dilution assays yielded the following results: […]

[8] = test system: Clostridium difficile SC11251; assay: Agar dilution assay, anaerobic bacteria (MIC); assay type: cell-based; conditions: Clostridioides difficile; C. difficile SC11251; DST agar, 10^5 CFU, 37° C., 18 hours, anaerobic chamber
[9] = test system: Hemophilus vaginalis SC8568; assay: Agar dilution assay, anaerobic bacteria (MIC); assay type: cell-based; conditions: Gardnerella vaginalis; H. vaginalis SC8568; DST agar, 10^5 CFU, 37° C., 18 hours, anaerobic chamber
[10] = test system: Hemophilus vaginalis SC9640; assay: Agar dilution assay, anaerobic bacteria (MIC); assay type: cell-based; conditions: Gardnerella vaginalis; H. vaginalis SC9640; DST agar, 10^5 CFU, 37° C., 18 hours, anaerobic chamber
[11] = test system: Fusobacterium necrophorum SC10338; assay: Agar dilution assay, anaerobic bacteria (MIC); assay type: cell-based; conditions: F. necrophorum SC10338, DST agar, 10^5 CFU, 37° C., 18 hours, anaerobic chamber
[12] = test system: Pseudomonas anaerobius SC11263; assay: Agar dilution assay, anaerobic bacteria (MIC); assay type: cell-based; conditions: DST agar, 10^5 CFU, 37° C., 18 hours, anaerobic chamber
[13] = Photolability (half-life); assay type: physicochemical; conditions: exposure to light; read-out: photolabile, half-life
[14] = test system: gram positive and gram negative bacteria; assay: Antibacterial activity (general statement); assay type: cell-based
[15] = test system: Staphylococcus aureus SC1276; assay: Agar dilution assay, aerobic test organisms (MIC); conditions: SC1276, 18 h
[16] = test system: Staphylococcus aureus SC2399; assay: Agar dilution assay, aerobic test organisms (MIC); conditions: SC2399, 18 h
[17] = test system: Staphylococcus aureus SC2400; assay: Agar dilution assay, aerobic test organisms (MIC); conditions: SC2400, 18 h
[18] = test system: Streptococcus faecalis SC9011; assay: Agar dilution assay, aerobic test organisms (MIC); conditions: Enterococcus faecalis, SC9011, 18 h
[19] = test system: Streptococcus agalactiae SC9287; assay: Agar dilution assay, aerobic test organisms (MIC); conditions: SC9287, 18 h
Escherichia coli SC8294 = assay: Agar dilution assay, aerobic test organisms (MIC); conditions: SC8294, 18 h
Escherichia coli SC10896 = assay: Agar dilution assay, aerobic test organisms (MIC); conditions: SC10896, 18 h
[20] = test system: Escherichia colid SC10909; assay: Agar dilution assay, aerobic test organisms (MIC); conditions: SC10909, 18 h
[21] = test system: Klebsiella aerogenes SC10440; assay: Agar dilution assay, aerobic test organisms (MIC); conditions: SC10440, 18 h
[22] = test system: Klebsiella pneumoniae SC9527; assay: Agar dilution assay, aerobic test organisms (MIC); conditions: SC9527, 18 h
Proteus mirabilis SC3855 = assay: Agar dilution assay, aerobic test organisms (MIC); conditions: SC3855, 18 h
[23] = test system: Salmonella typhosa SC1195; assay: Agar dilution assay, aerobic test organisms (MIC); conditions: Salmonella enterica, 18 h
[24] = test system: Enterobacter cloacae SC8236; assay: Agar dilution assay, aerobic test organisms (MIC); conditions: SC8236, 18 h
[25] = test system: Pseudomonas aeruginosa SC8333; assay: Agar dilution assay, aerobic test organisms (MIC); conditions: SC8333, 18 h

SMILES: COC1=CC(=O)C=CC1=[N+]=[N-]
- MIC (Shigella sonnei SC8449): 1.6 mg/L (≈ 10.7 µM)
- MIC [1]: 0.4 mg/L (≈ 2.66 µM)
- MIC [2]: 0.4 mg/L (≈ 2.66 µM)
- MIC [3]: 0.4 mg/L (≈ 2.66 µM)
- MIC [4]: 0.4 mg/L (≈ 2.66 µM)
- MIC [5]: 0.2 mg/L (≈ 1.33 µM)
- MIC [6]: 0.2 mg/L (≈ 1.33 µM)
- MIC [7]: < 0.05 mg/L
- MIC [8]: 0.4 mg/L (≈ 2.66 µM)
- MIC [9]: 0.2 mg/L (≈ 1.33 µM)
- MIC [10]: 0.4 mg/L (≈ 2.66 µM)
- MIC [11]: < 0.05 mg/L
- MIC [12]: < 0.05 mg/L
- half-life [13]: < 2 h
- activity against bacteria [14]: activity against a variety of gram positive and gram negative bacteria, particularly against anaerobic bacteria
- MIC [15]: 2.5 mg/L (≈ 16.7 µM)
- MIC [16]: 12.5 mg/L (≈ 83.3 µM)
- MIC [17]: 12.5 mg/L (≈ 83.3 µM)
- MIC [18]: 6.3 mg/L (≈ 42 µM)
- MIC [19]: 6.3 mg/L (≈ 42 µM)
- MIC (Escherichia coli SC8294): 3.1 mg/L (≈ 20.6 µM)
- MIC (Escherichia coli SC10896): 6.3 mg/L (≈ 42 µM)
- MIC [20]: 3.1 mg/L (≈ 20.6 µM)
- MIC [21]: 12.5 mg/L (≈ 83.3 µM)
- MIC [22]: 25 mg/L (≈ 167 µM)
- MIC (Proteus mirabilis SC3855): 3.1 mg/L (≈ 20.6 µM)
- MIC [23]: 1.6 mg/L (≈ 10.7 µM)
- MIC [24]: 50 mg/L (≈ 333 µM)
- MIC [25]: 25 mg/L (≈ 167 µM)
